Assay results as given in PubChem BioAssay (NCI).
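Assay format: 96-well plates, 48-hour exposure. At the GI50, growth is halved. At the TGI there is no net growth.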

Legend:
Assay in all cases: growth of human tumour cells (NCI), 48 h
MDA-MB-435 = system: MDA-MB-435
EKVX NSCLC = system: EKVX NSCLC
HT29 colon = system: HT29 colon
A549 NSCLC = system: A549 NSCLC
K-562 leukemia = system: K-562 leukemia
IGROV1 ovarian = system: IGROV1 ovarian
SK-MEL-5 melanoma = system: SK-MEL-5 melanoma
MALME-3M melanoma = system: MALME-3M melanoma
SN12C renal = system: SN12C renal
NCI/ADR-RES ovarian = system: NCI/ADR-RES ovarian
UO-31 renal = system: UO-31 renal
NCI-H460 lung = system: NCI-H460 lung
HS 578T breast = system: HS 578T breast
M14 melanoma = system: M14 melanoma
SK-MEL-28 melanoma = system: SK-MEL-28 melanoma
786-0 renal = system: 786-0 renal
SW-620 colon = system: SW-620 colon
SF-295 CNS = system: SF-295 CNS
OVCAR-4 ovarian = system: OVCAR-4 ovarian
SK-OV-3 ovarian = system: SK-OV-3 ovarian
NCI-H522 lung = system: NCI-H522 lung
OVCAR-5 ovarian = system: OVCAR-5 ovarian
COLO 205 colon = system: COLO 205 colon
T-47D breast = system: T-47D breast
HCC-2998 colon = system: HCC-2998 colon
MDA-MB-231 breast = system: MDA-MB-231 breast
NCI-H226 lung = system: NCI-H226 lung
MCF7 breast = system: MCF7 breast
HCT-116 colon = system: HCT-116 colon
RXF 393 renal = system: RXF 393 renal
NCI-H23 lung = system: NCI-H23 lung
HL-60(TB) leukemia = system: HL-60(TB) leukemia
SF-268 CNS = system: SF-268 CNS
A498 renal = system: A498 renal
KM12 colon = system: KM12 colon
SR leukemia = system: SR leukemia
HCT-15 colon = system: HCT-15 colon
TK-10 renal = system: TK-10 renal
UACC-62 melanoma = system: UACC-62 melanoma
OVCAR-8 ovarian = system: OVCAR-8 ovarian
OVCAR-3 ovarian = system: OVCAR-3 ovarian
ACHN renal = system: ACHN renal
SNB-19 CNS = system: SNB-19 CNS
SNB-75 CNS = system: SNB-75 CNS
UACC-257 melanoma = system: UACC-257 melanoma
U251 CNS = system: U251 CNS
SK-MEL-2 melanoma = system: SK-MEL-2 melanoma
PC-3 prostate = system: PC-3 prostate
SF-539 CNS = system: SF-539 CNS
LOX IMVI melanoma = system: LOX IMVI melanoma
RPMI-8226 leukemia = system: RPMI-8226 leukemia
HOP-62 NSCLC = system: HOP-62 NSCLC
CAKI-1 renal = system: CAKI-1 renal
MOLT-4 leukemia = system: MOLT-4 leukemia
DU-145 prostate = system: DU-145 prostate

O=[N+]([O-])c1ccc(/C=C/c2nc3ccc(Cl)cc3[nH]2)cc1
GI50 (MDA-MB-435): 5.36 µM | TGI (MDA-MB-435): > 100 µM | GI50 (EKVX NSCLC): > 100 µM | TGI (EKVX NSCLC): > 100 µM | GI50 (HT29 colon): 17.8 µM | TGI (HT29 colon): > 100 µM | GI50 (A549 NSCLC): 37.8 µM | TGI (A549 NSCLC): > 100 µM | GI50 (K-562 leukemia): 5.99 µM | TGI (K-562 leukemia): > 100 µM | GI50 (IGROV1 ovarian): 35.7 µM | TGI (IGROV1 ovarian): > 100 µM | GI50 (SK-MEL-5 melanoma): 31.6 µM | TGI (SK-MEL-5 melanoma): > 100 µM | GI50 (MALME-3M melanoma): > 100 µM | TGI (MALME-3M melanoma): > 100 µM | GI50 (SN12C renal): 24 µM | TGI (SN12C renal): 91 µM | GI50 (NCI/ADR-RES ovarian): 15 µM | TGI (NCI/ADR-RES ovarian): > 100 µM | GI50 (UO-31 renal): 30 µM | TGI (UO-31 renal): > 100 µM | GI50 (NCI-H460 lung): 17.8 µM | TGI (NCI-H460 lung): 84.9 µM | GI50 (HS 578T breast): 68.2 µM | TGI (HS 578T breast): > 100 µM | GI50 (M14 melanoma): > 100 µM | TGI (M14 melanoma): > 100 µM | GI50 (SK-MEL-28 melanoma): > 100 µM | TGI (SK-MEL-28 melanoma): > 100 µM | GI50 (786-0 renal): 18.7 µM | TGI (786-0 renal): 43.3 µM | GI50 (SW-620 colon): 28.7 µM | TGI (SW-620 colon): > 100 µM | GI50 (SF-295 CNS): 39.9 µM | TGI (SF-295 CNS): > 100 µM | GI50 (OVCAR-4 ovarian): 74 µM | TGI (OVCAR-4 ovarian): > 100 µM | GI50 (SK-OV-3 ovarian): > 100 µM | TGI (SK-OV-3 ovarian): > 100 µM | GI50 (NCI-H522 lung): 14.1 µM | TGI (NCI-H522 lung): > 100 µM | GI50 (OVCAR-5 ovarian): > 100 µM | TGI (OVCAR-5 ovarian): > 100 µM | GI50 (COLO 205 colon): > 100 µM | TGI (COLO 205 colon): > 100 µM | GI50 (T-47D breast): 28.8 µM | TGI (T-47D breast): > 100 µM | GI50 (HCC-2998 colon): 19.5 µM | TGI (HCC-2998 colon): 88.1 µM | GI50 (MDA-MB-231 breast): 26.5 µM | TGI (MDA-MB-231 breast): > 100 µM | GI50 (NCI-H226 lung): 45.9 µM | TGI (NCI-H226 lung): > 100 µM | GI50 (MCF7 breast): 21.5 µM | TGI (MCF7 breast): > 100 µM | GI50 (HCT-116 colon): 15.7 µM | TGI (HCT-116 colon): 37.6 µM | GI50 (RXF 393 renal): 71.7 µM | TGI (RXF 393 renal): > 100 µM | GI50 (NCI-H23 lung): 54.5 µM | TGI (NCI-H23 lung): > 100 µM | GI50 (HL-60(TB) leukemia): > 100 µM | TGI (HL-60(TB) leukemia): > 100 µM | GI50 (SF-268 CNS): > 100 µM | TGI (SF-268 CNS): > 100 µM | GI50 (A498 renal): 13.9 µM | TGI (A498 renal): 44.2 µM | GI50 (KM12 colon): 5.6 µM | TGI (KM12 colon): > 100 µM | GI50 (SR leukemia): 4.95 µM | TGI (SR leukemia): > 100 µM | GI50 (HCT-15 colon): 11.7 µM | TGI (HCT-15 colon): > 100 µM | GI50 (TK-10 renal): 28.2 µM | TGI (TK-10 renal): > 100 µM | GI50 (UACC-62 melanoma): > 100 µM | TGI (UACC-62 melanoma): > 100 µM | GI50 (OVCAR-8 ovarian): 24.5 µM | TGI (OVCAR-8 ovarian): 63.6 µM | GI50 (OVCAR-3 ovarian): 22.4 µM | TGI (OVCAR-3 ovarian): 65.1 µM | GI50 (ACHN renal): 17.8 µM | TGI (ACHN renal): 50.9 µM | GI50 (SNB-19 CNS): > 100 µM | TGI (SNB-19 CNS): > 100 µM | GI50 (SNB-75 CNS): 76.9 µM | TGI (SNB-75 CNS): > 100 µM | GI50 (UACC-257 melanoma): > 100 µM | TGI (UACC-257 melanoma): > 100 µM | GI50 (U251 CNS): 16.3 µM | TGI (U251 CNS): 35.3 µM | GI50 (SK-MEL-2 melanoma): > 100 µM | TGI (SK-MEL-2 melanoma): > 100 µM | GI50 (PC-3 prostate): 21.8 µM | TGI (PC-3 prostate): > 100 µM | GI50 (SF-539 CNS): 15.9 µM | TGI (SF-539 CNS): 39.4 µM | GI50 (LOX IMVI melanoma): 27.2 µM | TGI (LOX IMVI melanoma): > 100 µM | GI50 (RPMI-8226 leukemia): 31.4 µM | TGI (RPMI-8226 leukemia): > 100 µM | GI50 (HOP-62 NSCLC): 37.7 µM | TGI (HOP-62 NSCLC): > 100 µM | GI50 (CAKI-1 renal): 34.6 µM | TGI (CAKI-1 renal): 91 µM | GI50 (MOLT-4 leukemia): 59.7 µM | TGI (MOLT-4 leukemia): > 100 µM | GI50 (DU-145 prostate): 19.4 µM | TGI (DU-145 prostate): 66.6 µM
